{
  "source": "patent US10519143B2",
  "about": "“Substituted-indole-compounds as estrogen receptor down-regulators” (LUOXIN PHARMACEUTICAL (SHANGHAI) CO., LTD, priority 2016, dated 2019)",
  "key": {"CYP 2D6": {"target": "CYP 2D6 (Homo sapiens, UniProt P10635)", "sequence (P10635 whole entry)": "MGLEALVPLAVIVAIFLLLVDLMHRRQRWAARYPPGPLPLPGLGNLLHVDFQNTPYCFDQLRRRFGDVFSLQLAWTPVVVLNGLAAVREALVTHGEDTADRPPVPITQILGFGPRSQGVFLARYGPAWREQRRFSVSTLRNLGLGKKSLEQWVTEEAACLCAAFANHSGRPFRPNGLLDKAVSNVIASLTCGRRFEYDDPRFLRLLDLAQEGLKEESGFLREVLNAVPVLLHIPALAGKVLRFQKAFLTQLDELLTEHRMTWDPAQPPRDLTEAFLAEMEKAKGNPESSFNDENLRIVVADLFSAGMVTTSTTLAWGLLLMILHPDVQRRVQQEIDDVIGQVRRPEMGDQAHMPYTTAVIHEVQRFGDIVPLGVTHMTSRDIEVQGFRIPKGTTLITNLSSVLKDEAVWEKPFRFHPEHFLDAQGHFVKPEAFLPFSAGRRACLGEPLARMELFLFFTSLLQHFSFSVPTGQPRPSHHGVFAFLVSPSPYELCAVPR", "experiment": "inhibition of CYP enzymes 2D6", "type": "in vitro ADME"}, "CYP 2C19": {"target": "CYP 2C19 (Homo sapiens, UniProt P33261)", "sequence (P33261 whole entry)": "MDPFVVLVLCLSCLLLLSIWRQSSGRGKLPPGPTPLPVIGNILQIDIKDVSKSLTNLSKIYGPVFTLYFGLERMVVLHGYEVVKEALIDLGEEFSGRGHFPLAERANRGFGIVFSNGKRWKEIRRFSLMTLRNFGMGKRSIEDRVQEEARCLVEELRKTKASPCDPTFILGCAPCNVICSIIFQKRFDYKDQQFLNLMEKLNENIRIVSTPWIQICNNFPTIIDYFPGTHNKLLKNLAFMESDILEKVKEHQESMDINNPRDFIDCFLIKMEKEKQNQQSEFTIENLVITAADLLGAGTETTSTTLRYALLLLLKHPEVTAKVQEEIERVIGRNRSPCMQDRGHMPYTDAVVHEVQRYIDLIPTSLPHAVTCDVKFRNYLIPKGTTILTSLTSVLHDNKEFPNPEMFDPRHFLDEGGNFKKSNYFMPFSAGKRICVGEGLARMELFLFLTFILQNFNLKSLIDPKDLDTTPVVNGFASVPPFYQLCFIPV", "experiment": "inhibition of CYP enzymes 2C19", "type": "in vitro ADME"}, "[1]": {"experiment": "plasma protein binding rate (Human)", "type": "in vitro ADME"}, "CYP 3A4": {"target": "CYP 3A4 (Homo sapiens, UniProt P08684)", "sequence (P08684 whole entry)": "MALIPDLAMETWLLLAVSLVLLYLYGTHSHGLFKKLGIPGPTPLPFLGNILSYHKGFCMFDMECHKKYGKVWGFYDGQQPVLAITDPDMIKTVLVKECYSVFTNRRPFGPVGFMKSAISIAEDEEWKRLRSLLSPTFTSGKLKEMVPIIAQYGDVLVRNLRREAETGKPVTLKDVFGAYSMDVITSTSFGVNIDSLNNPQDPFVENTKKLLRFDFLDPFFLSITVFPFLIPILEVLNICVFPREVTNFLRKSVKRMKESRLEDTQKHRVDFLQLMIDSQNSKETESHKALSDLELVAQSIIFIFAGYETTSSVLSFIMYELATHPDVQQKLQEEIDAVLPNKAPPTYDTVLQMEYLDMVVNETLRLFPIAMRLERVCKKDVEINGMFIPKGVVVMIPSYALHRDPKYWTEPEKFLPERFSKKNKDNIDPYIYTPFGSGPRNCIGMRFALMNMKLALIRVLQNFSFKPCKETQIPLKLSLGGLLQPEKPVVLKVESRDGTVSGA", "experiment": "inhibition of CYP enzymes 3A4", "type": "in vitro ADME"}, "[2]": {"tested_on": "MCF-7 breast cancer cell xenograft", "experiment": "antitumor activity on MCF-7 breast cancer cell xenograft model", "type": "in vivo, BALB/c nude mice", "procedure": "Mice were inoculated subcutaneously with 0.36 mg estrogen sustained release tablet (60 days release) on the left shoulder three days before inoculation. When cells were in the logarithmic growth phase, cells were harvested, counted and adjusted to 10×10^7 cells/mL, then an equal volume of Matrigel was added, mixing for inoculation. 0.2 mL MCF-7 tumor cell suspension (10×10^6) was inoculated subcutaneously into the right shoulder of each mouse. On the 7th day after tumor cell inoculation, mice were grouped and administrated once a day, with an average tumor volume of 169 mm^3 and a body weight of 23.33 g. Tumor volume and body weight were measured twice a week after grouping, and the tumor growth rate (T/C) and tumor growth inhibition rate (TGI) were calculated based on the last measuring data on the 17th day after grouping."}, "CYP 2C9": {"target": "CYP 2C9 (Homo sapiens, UniProt P11712)", "sequence (P11712 whole entry)": "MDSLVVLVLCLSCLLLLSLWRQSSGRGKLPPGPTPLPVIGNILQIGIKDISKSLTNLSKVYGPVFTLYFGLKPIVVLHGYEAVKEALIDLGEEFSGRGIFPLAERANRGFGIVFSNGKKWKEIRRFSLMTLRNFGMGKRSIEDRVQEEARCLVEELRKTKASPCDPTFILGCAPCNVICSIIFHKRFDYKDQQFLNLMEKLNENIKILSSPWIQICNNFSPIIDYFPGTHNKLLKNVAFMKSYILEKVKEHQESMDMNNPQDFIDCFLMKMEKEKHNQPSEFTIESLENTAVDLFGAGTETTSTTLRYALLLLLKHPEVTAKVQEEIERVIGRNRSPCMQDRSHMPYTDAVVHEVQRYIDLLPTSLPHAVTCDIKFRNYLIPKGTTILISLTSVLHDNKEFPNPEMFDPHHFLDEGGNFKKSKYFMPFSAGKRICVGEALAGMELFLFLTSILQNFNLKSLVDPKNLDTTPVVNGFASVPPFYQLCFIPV", "experiment": "inhibition of CYP enzymes 2C9", "type": "in vitro ADME"}, "CYP 1A2": {"target": "T1, CYP 1A2 (Homo sapiens, UniProt P05177)", "T1 sequence (P05177 1-516)": "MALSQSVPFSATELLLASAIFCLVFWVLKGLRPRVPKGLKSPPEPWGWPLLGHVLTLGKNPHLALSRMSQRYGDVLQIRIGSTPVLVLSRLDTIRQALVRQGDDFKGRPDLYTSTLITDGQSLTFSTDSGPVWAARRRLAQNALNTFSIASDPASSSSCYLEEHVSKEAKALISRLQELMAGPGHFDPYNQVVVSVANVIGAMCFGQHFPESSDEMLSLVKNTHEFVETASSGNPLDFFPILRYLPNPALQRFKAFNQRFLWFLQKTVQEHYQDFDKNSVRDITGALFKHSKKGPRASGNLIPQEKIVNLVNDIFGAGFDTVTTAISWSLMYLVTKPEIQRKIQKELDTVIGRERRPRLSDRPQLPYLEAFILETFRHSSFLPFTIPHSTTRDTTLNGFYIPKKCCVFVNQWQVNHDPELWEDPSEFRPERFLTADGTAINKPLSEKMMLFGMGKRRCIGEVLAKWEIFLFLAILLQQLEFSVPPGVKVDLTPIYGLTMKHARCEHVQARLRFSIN", "experiment": "inhibition of CYP enzymes 1A2", "type": "in vitro ADME"}, "[3]": {"experiment": "plasma protein binding rate (CD-1 mouse)", "type": "in vitro ADME"}, "[4]": {"experiment": "in vivo PK properties (cassette PK)", "details": "plasma; for AUC(0-t): read-out: AUC0-last (nm/hr)"}, "[5]": {"experiment": "drug distribution in tissues (plasma, tumor, brain)", "type": "in vivo, mice", "procedure": "On the 20th day after grouping, the sample was collected from plasma, tumor, breast and brain of the mice at four time points (2-3 mice each time point) which was respectively 0.5 hour, 1.5 hours, 6 hours and 24 hours after administration. The blood (0.5 mL) was collected using a 1.5 mL EDTA-K2 anticoagulation tube, immediately centrifuged at 4000 rpm, 4° C. for 10 minutes to prepare plasma, the plasma sample was stored at −80° C. for determination of drug concentration. The tumor was collected using a 2 mL cryotube, and the brain was collected using a 5 mL cryotube, the samples were immediately put into liquid nitrogen for quike freeze. All samples were stored at −80° C. for determination of drug concentration after sampling. The result was converted based on corresponding AUC to compare the drug distribution."}, "MCF-7 cells": {"tested_on": "MCF-7 cells", "experiment": "MCF-7 cell proliferation inhibition assay", "type": "cell-based", "details": "Homo sapiens, MCF7, 144 h; MCF-7 cells, 6 days incubation, CellTiter-Glo; read-out: anti-proliferation in MCF-7 cells", "procedure": "Experimental Reagent: RPMI 1640 medium, fetal bovine serum, Promega CellTiter-Glo reagent. The cell line MCF-7 was purchased from The European Collection of Authenticated Cell Cultures (ECACC). Envision Multilabel Reader (PerkinElmer). Experimental Method: […] The cell plate was placed in a carbon dioxide incubator overnight. […] The cell plate was incubated in a carbon dioxide incubator for 6 days. Promega CellTiter-Glo reagent was added to the cell plate at 25 μL per well, cells were incubated for 10 minutes at room temperature to stabilize the luminescence signal, which was measured using PerkinElmer Envision Multilabel Reader. Data Analysis: […] (Model 205 in XLFIT5, iDBS)"}, "[6]": {"details": "oral, once a day, ARN-810 10/30 mg/kg, I-1 30 mg/kg, 17th day after grouping"}},
  "note": "Like-named read-outs stand apart in the source and are kept apart here.",
  "data": [
    {"compound": "CC/C(=C(/c1ccc(/C=C/C(=O)O)cc1)c1cc2ccccc2[nH]1)c1ccc(F)cc1Cl", "note": "[Compound I-1]", "values": [
      {"measurement": "IC50", "setting": "CYP 2D6", "value": 43.4, "unit": "µM"},
      {"measurement": "IC50", "setting": "CYP 2C19", "value": 40.4, "unit": "µM"},
      {"measurement": "fraction unbound", "setting": "[1]", "value": 0.028},
      {"measurement": "IC50", "setting": "CYP 3A4", "value": 25.1, "unit": "µM"},
      {"measurement": "antitumor activity compared with ARN-810", "setting": "[2]; oral I-1 30 mg/kg versus oral ARN-810 10/30 mg/kg", "value": "superior"},
      {"measurement": "T/C (%)", "setting": "[2]; [6]", "value": 30.1, "unit": "%"},
      {"measurement": "TGI (%)", "setting": "[2]; [6]", "value": 93.6, "unit": "%"},
      {"measurement": "tumor volumn (mm^3) 17th day after grouping", "setting": "[2]; oral, once a day, ARN-810 10/30 mg/kg, I-1 30 mg/kg, Mean ± SEM", "value": "201 ± 27", "unit": "mm^3"},
      {"measurement": "IC50", "setting": "CYP 2C9", "value": 10.1, "unit": "µM"},
      {"measurement": "IC50", "setting": "CYP 1A2", "value": 25.5, "unit": "µM"},
      {"measurement": "fraction unbound", "setting": "[3]", "value": 0.012},
      {"measurement": "C0", "setting": "[4]; iv, 1 mg/kg, i.V. 1 mpk", "value": 3480, "unit": "nM"},
      {"measurement": "clearance", "setting": "[4]; iv, 1 mg/kg, i.V. 1 mpk", "value": 3.61, "unit": "mL/min/kg"},
      {"measurement": "half-life", "setting": "[4]; iv, 1 mg/kg, i.V. 1 mpk", "value": 2.81, "unit": "h"},
      {"measurement": "AUC(0-t)", "setting": "[4]; iv, 1 mg/kg, i.V. 1 mpk", "value": 10.4, "unit": "µM·h"},
      {"measurement": "Vd", "setting": "[4]; iv, 1 mg/kg, i.V. 1 mpk, read-out: Vdss", "value": 0.992, "unit": "L/kg"},
      {"measurement": "Cmax", "setting": "[4]; po, 2.5 mg/kg, P.O 2.5 mpk", "value": 2150, "unit": "nM"},
      {"measurement": "Tmax", "setting": "[4]; po, 2.5 mg/kg, P.O 2.5 mpk", "value": 3.33, "unit": "h"},
      {"measurement": "bioavailability", "setting": "[4]; po, 2.5 mg/kg, P.O 2.5 mpk", "value": 70.6, "unit": "%"},
      {"measurement": "half-life", "setting": "[4]; po, 2.5 mg/kg, P.O 2.5 mpk", "value": 3.18, "unit": "h"},
      {"measurement": "AUC(0-t)", "setting": "[4]; po, 2.5 mg/kg, P.O 2.5 mpk", "value": 18.3, "unit": "µM·h"},
      {"measurement": "distribution in brain tissue compared with ARN-810", "setting": "[5]; brain tissue", "value": "much better"},
      {"measurement": "AUC0-last (nmol · h/kg) brain", "setting": "[5]; brain, dose 67.3 μmol/kg, 20th day after grouping", "value": 43167, "unit": "nmol·h/kg"},
      {"measurement": "AUC0-last (nmol · h/kg) plasma", "setting": "[5]; plasma, dose 67.3 μmol/kg, 20th day after grouping", "value": 118937, "unit": "nmol·h/kg"},
      {"measurement": "distribution in tumor tissue compared with ARN-810", "setting": "[5]; tumor tissue", "value": "much better"},
      {"measurement": "AUC0-last (nmol · h/kg) tumor", "setting": "[5]; tumor, dose 67.3 μmol/kg, 20th day after grouping", "value": 55487, "unit": "nmol·h/kg"},
      {"measurement": "IC50", "setting": "MCF-7 cells", "value": 0.0385, "unit": "µM"}
    ]}
  ]
}
